Several values for one entry are separate records, joined by “and”; a condition that tells them apart may be missing. Identical values can stand only once. Inconclusive results and toxic doses are left out.
Tested on: L1210 leukemia ip in BDF1 mice, survival T/C
Assay: NCI In Vivo Anticancer Drug Screen. Data for tumor model L1210 Leukemia (intraperitoneal) in B6D2F1 (BDF1) mice
Settings: endpoint: mean survival time, higher = longer survival
How it was run: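 Ratio derived from survival: compound-dosed mice over vehicle-dosed mice, all bearing a transplantable tumor.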

[1] = dose: 100.0 mg/kg/injection, schedule: Q01DX001 (ip), vehicle: Klucel (hydroxypropylcellulose) (HPC)
[2] = dose: 100.0 mg/kg/injection, schedule: Q04DX003 (ip), vehicle: Klucel (hydroxypropylcellulose) (HPC)
[3] = dose: 200.0 mg/kg/injection, schedule: Q01DX001 (ip), vehicle: Klucel (hydroxypropylcellulose) (HPC)
[4] = dose: 200.0 mg/kg/injection, schedule: Q04DX003 (ip), vehicle: Klucel (hydroxypropylcellulose) (HPC)
[5] = dose: 400.0 mg/kg/injection, schedule: Q01DX001 (ip), vehicle: Klucel (hydroxypropylcellulose) (HPC)
[6] = dose: 400.0 mg/kg/injection, schedule: Q04DX003 (ip), vehicle: Klucel (hydroxypropylcellulose) (HPC)
[7] = dose: 100.0 mg/kg/injection, schedule: Q01DX009 (ip), vehicle: Klucel (hydroxypropylcellulose) (HPC)
[8] = dose: 100.0 mg/kg/injection, schedule: Q04DX002 (ip), vehicle: saline
[9] = dose: 100.0 mg/kg/injection, schedule: Q04DX003 (ip), vehicle: saline
[10] = dose: 200.0 mg/kg/injection, schedule: Q04DX003 (ip), vehicle: saline
[11] = dose: 100.0 mg/kg/injection, schedule: Q04DX003 (ip), vehicle: saline with Tween-80
[12] = dose: 200.0 mg/kg/injection, schedule: Q04DX003 (ip), vehicle: saline with Tween-80
[13] = dose: 400.0 mg/kg/injection, schedule: Q04DX003 (ip), vehicle: saline with Tween-80
[14] = dose: 200.0 mg/kg/injection, schedule: Q01DX009 (ip), vehicle: Klucel (hydroxypropylcellulose) (HPC)
[15] = dose: 400.0 mg/kg/injection, schedule: Q01DX009 (ip), vehicle: Klucel (hydroxypropylcellulose) (HPC)
[16] = dose: 100.0 mg/kg/injection, schedule: Q01DX009 (ip), vehicle: saline with Tween-80
[17] = dose: 200.0 mg/kg/injection, schedule: Q01DX009 (ip), vehicle: saline with Tween-80
[18] = dose: 400.0 mg/kg/injection, schedule: Q01DX009 (ip), vehicle: saline with Tween-80

CC(=O)C(C(=O)c1ccccc1)C(c1ccccc1)c1ccccc1 (centres undefined)
T/C [1]: 93 % of control
T/C [2]: 92 % of control
T/C [3]: 90 % of control
T/C [4]: 96 % of control
T/C [5]: 92 % of control
T/C [6]: 94 % of control

CC=C1C(C(=O)O)C1C(=O)O (centres undefined)
T/C (dose: 25.0 mg/kg/injection, schedule: Q01DX009 (ip), vehicle: Klucel (hydroxypropylcellulose) (HPC)): 93 % of control
T/C (dose: 50.0 mg/kg/injection, schedule: Q01DX009 (ip), vehicle: Klucel (hydroxypropylcellulose) (HPC)): 93 % of control
T/C [7]: 95 % of control and 96 % of control
T/C [8]: 115 % of control
T/C (dose: 200.0 mg/kg/injection, schedule: Q04DX002 (ip), vehicle: saline): 107 % of control
T/C (dose: 400.0 mg/kg/injection, schedule: Q04DX002 (ip), vehicle: saline): 113 % of control

CC(CS)CS
T/C (dose: 100.0 mg/kg/injection, schedule: Q01DX001 (ip), vehicle: carboxymethylcellulose (CMC)): 95 % of control
T/C (dose: 200.0 mg/kg/injection, schedule: Q01DX001 (ip), vehicle: carboxymethylcellulose (CMC)): 95 % of control
T/C (dose: 400.0 mg/kg/injection, schedule: Q01DX001 (ip), vehicle: carboxymethylcellulose (CMC)): 95 % of control

COC(=N)c1ccc2c(c1)OCO2
T/C [9]: 94 % of control
T/C [10]: 94 % of control
T/C (dose: 400.0 mg/kg/injection, schedule: Q04DX003 (ip), vehicle: saline): 100 % of control

COC(=O)C(CCC(=O)O)NC(=O)C(F)(F)F (centres undefined)
T/C [1]: 89 % of control
T/C [3]: 97 % of control
T/C [5]: 89 % of control

NC(=Nc1ccc([N+](=O)[O-])cc1)c1ccccc1
T/C [11]: 98 % of control
T/C [12]: 102 % of control
T/C [13]: 100 % of control

N#C/C(=C\c1ccc(Cl)cc1)c1cccc2ccccc12
T/C [7]: 92 % of control
T/C [14]: 92 % of control
T/C [15]: 90 % of control

CCOC(=O)c1ccc2ccccc2c1
T/C [16]: 94 % of control
T/C [17]: 97 % of control
T/C [18]: 89 % of control

CN(C(=O)OCc1ccccc1)C(Cc1ccccc1)C(=O)O (centres undefined)
T/C (dose: 100.0 mg/kg/injection, schedule: Q01DX001 (ip), vehicle: other): 95 % of control
T/C (dose: 200.0 mg/kg/injection, schedule: Q01DX001 (ip), vehicle: other): 96 % of control

CNC(=O)CCN1CCN(CC/C=C2\c3ccccc3Sc3ccc(Cl)cc32)CC1
T/C (dose: 1.56 mg/kg/injection, schedule: Q03HX024 (ip), vehicle: saline): 95 % of control
T/C (dose: 2.05 mg/kg/injection, schedule: Q01DX009 (ip), vehicle: saline): 90 % of control
T/C (dose: 3.12 mg/kg/injection, schedule: Q03HX024 (ip), vehicle: saline): 100 % of control
T/C (dose: 4.1 mg/kg/injection, schedule: Q01DX009 (ip), vehicle: saline): 94 % of control
T/C (dose: 8.2 mg/kg/injection, schedule: Q01DX009 (ip), vehicle: saline): 111 % of control
T/C (dose: 16.5 mg/kg/injection, schedule: Q01DX009 (ip), vehicle: saline): 111 % of control
T/C (dose: 18.75 mg/kg/injection, schedule: Q01DX001 (ip), vehicle: saline): 106 % of control
T/C (dose: 25.0 mg/kg/injection, schedule: Q04DX003 (ip), vehicle: saline): 122 % of control
T/C (dose: 37.5 mg/kg/injection, schedule: Q01DX001 (ip), vehicle: saline): 108 % of control
T/C (dose: 75.0 mg/kg/injection, schedule: Q01DX001 (ip), vehicle: saline): 106 % of control
T/C [9]: 114 % of control
T/C (dose: 150.0 mg/kg/injection, schedule: Q01DX001 (ip), vehicle: saline): 106 % of control

O=C1C[C@H]2[C@H](CO)[C@@H](OC(=O)c3ccc(-c4ccccc4)cc3)C[C@H]2O1
T/C (dose: 12.5 mg/kg/injection, schedule: Q01DX009 (ip), vehicle: alcohol): 103 % of control
T/C (dose: 25.0 mg/kg/injection, schedule: Q01DX009 (ip), vehicle: alcohol): 101 % of control
T/C (dose: 50.0 mg/kg/injection, schedule: Q01DX009 (ip), vehicle: alcohol): 98 % of control

COc1ccc2c(c1)OC(OC)(c1ccccc1)C(O)(OC)C2=O (centres undefined)
T/C (dose: 50.0 mg/kg/injection, schedule: Q01DX001 (ip), vehicle: saline): 96 % of control
T/C (dose: 100.0 mg/kg/injection, schedule: Q01DX001 (ip), vehicle: saline): 98 % of control
T/C (dose: 200.0 mg/kg/injection, schedule: Q01DX001 (ip), vehicle: saline): 96 % of control
T/C (dose: 400.0 mg/kg/injection, schedule: Q01DX001 (ip), vehicle: saline): 98 % of control

c1ccc(N=NC(c2ccccc2)c2ccccc2)cc1
T/C (dose: 50.0 mg/kg/injection, schedule: Q04DX003 (ip), vehicle: saline): 106 % of control
T/C [9]: 95 % of control
T/C [10]: 106 % of control

CCOC(=O)CN1C(=O)NC(C)(c2ccc(Cl)cc2)C1=O (centres undefined)
T/C [11]: 106 % of control
T/C [12]: 98 % of control
T/C [13]: 96 % of control

CN(C)/C=C1\NC(=S)NC1=O
T/C [16]: 95 % of control
T/C [17]: 95 % of control
T/C [18]: 91 % of control

Nc1nc(SCc2ccccc2)c2ncn(CCCl)c2n1
T/C (dose: 5.0 mg/kg/injection, schedule: Q01DX001 (ip), vehicle: carboxymethylcellulose (CMC)): 107 % of control
T/C (dose: 10.0 mg/kg/injection, schedule: Q01DX001 (ip), vehicle: carboxymethylcellulose (CMC)): 107 % of control
T/C (dose: 13.0 mg/kg/injection, schedule: Q01DX Z (ip), vehicle: carboxymethylcellulose (CMC)): 105 % of control
T/C (dose: 20.0 mg/kg/injection, schedule: Q01DX001 (ip), vehicle: carboxymethylcellulose (CMC)): 107 % of control
T/C (dose: 30.0 mg/kg/injection, schedule: Q01DX Z (ip), vehicle: carboxymethylcellulose (CMC)): 150 % of control
T/C (dose: 40.0 mg/kg/injection, schedule: Q01DX001 (ip), vehicle: carboxymethylcellulose (CMC)): 120 % of control
T/C (dose: 67.0 mg/kg/injection, schedule: Q01DX Z (ip), vehicle: carboxymethylcellulose (CMC)): 116 % of control
T/C (dose: 80.0 mg/kg/injection, schedule: Q01DX001 (ip), vehicle: carboxymethylcellulose (CMC)): 122 % of control
T/C (dose: 100.0 mg/kg/injection, schedule: Q01DX Z (ip), vehicle: carboxymethylcellulose (CMC)): 101 % of control
T/C (dose: 150.0 mg/kg/injection, schedule: Q01DX Z (ip), vehicle: carboxymethylcellulose (CMC)): 90 % of control
T/C (dose: 320.0 mg/kg/injection, schedule: Q01DX001 (ip), vehicle: carboxymethylcellulose (CMC)): 116 % of control

Cc1ccc(CN(C)N=Nc2ccc(C#N)cc2)cc1
T/C [11]: 96 % of control
T/C [12]: 87 % of control
T/C [13]: 94 % of control

C=CCSc1ccnc(N)n1
T/C (dose: 50.0 mg/kg/injection, schedule: Q01DX001 (ip), vehicle: Klucel (hydroxypropylcellulose) (HPC)): 103 % of control
T/C [1]: 101 % of control

Cc1cc(=O)[nH]c2ccccc12
T/C [11]: 91 % of control
T/C [12]: 95 % of control

CCN(CC)CCOC(=O)C(S)(c1ccccc1)C1CCCCC1 (centres undefined)
T/C (dose: 75.0 mg/kg/injection, schedule: Q01DX001 (ip), vehicle: other): 90 % of control
T/C (dose: 150.0 mg/kg/injection, schedule: Q01DX001 (ip), vehicle: other): 87 % of control

CCOC(=O)/C(C#N)=C/c1cccn1Cc1cc(OC)cc(OC)c1
T/C (dose: 25.0 mg/kg/injection, schedule: Q04DX002 (ip), vehicle: saline): 111 % of control
T/C (dose: 50.0 mg/kg/injection, schedule: Q04DX002 (ip), vehicle: saline): 101 % of control
T/C [8]: 94 % of control

Cc1c(N=O)c(=O)n(-c2ccccc2)n1C
T/C [7]: 94 % of control
T/C [2]: 95 % of control
T/C [14]: 97 % of control
T/C [4]: 95 % of control
T/C [15]: 110 % of control
T/C [6]: 98 % of control
